The subject of experiment [1] is epididymal adipose tissue. The experiment in a line: cAMP levels in epididymal WAT after CL-316,243 injection in HFD-fed mice. The experiment is classed as in vivo. The note with it: HFD mice pretreated with amlexanox 4 days; 20 min after CL-316,243 IP injection. On the procedure:
(§1) (A) Fold increase in serum FFA (left panel) and glycerol (right panel) levels 15 min after CL-316,243 injection in ND- or HFD-fed mice treated with amlexanox or vehicle control for 4 days. (B) Glycerol release from ex vivo epididymal (left panel) and inguinal (right panel) WATs after 1 hr pretreatment with amlexanox or vehicle. CL-316,243 treatment was started at time zero. (C) Immunoblots in inguinal WAT lysates from FIG. 5B after 60 min of CL-316,243 treatment. (D) cAMP levels in epididymal WAT 20 min after CL-316,243 (CL) or saline control injection in HFD-fed mice treated with amlexanox or vehicle control for 4 days. (E) Immunoblots in epididymal WAT 5 min after CL-316,243 or saline control injection in HFD-fed mice treated with amlexanox or vehicle control for 4 days. (F) Relative oxygen comsumption of mice in each treatment group.
To examine whether inhibition of TBK1 and IKKε with amlexanox reverses resistance to catecholamineinduced lipolysis in vivo by increasing stimulation of cAMP production, cAMP levels we measured in epididymal adipose tissue from mice on HFD after CL-316,243 IP injection. Levels of cAMP were increased after CL-316,243 IP injection in mice on HFD pretreated with amlexanox (FIG. 5D).
Background: Cyclic AMP is a second messenger, typically raised through Gs and lowered through Gi signalling.

In another experiment the test system is inguinal WAT. The experiment in a line: Immunoblots in ex vivo inguinal WAT lysates after CL-316,243 treatment. Also noted: species or system mice. On the procedure: as §1, with “group. […]” for “group.”
On the technique in general: Immunoblotting shows a protein as a band on a membrane.

In experiment [2] the test system is 3T3-L1 adipocytes. The experiment in a line: Ucp1 gene expression in 3T3-L1 adipocytes. Format: cell-based. The note with it: long-term treatment with TNFα. The method, then:
(§2) (A) Fold increase in Ucp1 expression in 3T3-L1 adipocytes expressing empty vector, Flag-IKKε, or Flag-IKKε K38A following treatment with or without 10 μM ISO (black bars) or 10 μM CL-316,243 (CL, gray bars) for 4 hr. (B) Glycerol release from 3T3-L1 adipocytes expressing empty vector (white bars), Flag-IKKε (black bars), or Flag-IKKε K38A (gray bars) treated with or without 10 μM ISO or 10 μM CL. (C) Immunoblots of whole cell lysates from FIG. 1B. Results were replicated in triplicate. D.E. stands for dark exposure and L.E. stands for light exposure. (D) Immunoblots of whole cell lysates from 3T3-L1 adipocytes expressing empty vector or Flag-IKKε treated with or without 50 μM FSK for 15 min. (E) cAMP levels from 3T3-L1 adipocytes expressing empty vector, Flag-IKKε, or Flag-IKKε K38A treated with or without 10 μM ISO or 50 μM FSK for 15 min.
Sympathetic activation of adipose tissue is involved in maintaining energy balance by stimulating lipolysis and fat oxidation (Coppack et al., 1994; Langin, 2006; Festuccia et al., 2011; herein incorporated by reference in their entireties). Activation of β-adrenergic signaling by either β-adrenergic agonists or cold exposure in white and brown adipose tissue initiates a cascade of events through cyclic AMP (cAMP), culminating in the transcriptional upregulation of Ucp1, which results in increased proton leak and energy expenditure (Himms-Hagen et al., 2000; Cao et al., 2004; Yehuda-Shnaidman et al., 2010; herein incorporated by reference in their entireties). […] This effect was further analyzed by overexpressing IKKε in 3T3-L1 adipocytes and examining Ucp1 gene expression after treatment with the non-selective β-adrenergic agonist, isoproterenol (ISO), or the β3-adrenergic agonist, CL-316,243. Fold difference in Ucp1 gene expression was calculated by normalization of relative Ucp1 mRNA levels in treated relative to control samples. […] The induction of Ucp1 gene expression in response to ISO or CL-316,243 was blunted when WT IKKε was overexpressed in these cells. […]

Experiment [3] has as its system 3T3-L1 adipocytes. The experiment in a line: Glycerol release (lipolysis) from 3T3-L1 adipocytes. Format: cell-based. The note with it: TNFα for 24 hr, different concentrations; 10 μM ISO or 50 μM FSK. The method, then: as §2
(A) Glycerol release from 3T3-L1 adipocytes treated with or without different concentrations of TNFα as indicated for 24 hr followed by treatment with or without 10 μM ISO or 50 μM FSK. (B) cAMP levels from 3T3-L1 adipocytes treated with or without 100 ng/ml TNFα for 24 hr followed by treatment with or without 10 μM ISO or 50 μM FSK in the presence or absence of pretreatment of 50 μM Amlexanox (Am). (C) cAMP levels from 3T3-L1 adipocytes treated with or without 100 ng/ml TNFα for 24 hr followed by treatment with or without 50 μM FSK in the presence or absence of pretreatment of 1 μM CAY10576 (CAY). (D) Immunoblots of whole cell lysates from 3T3-L1 adipocytes treated with or without different concentrations of TNFα as same as FIG. 2A for 24 hr followed by treatment with or without 10 μM ISO or 50 μM FSK. Results were replicated in multiple experiments. ‘[’ indicates total HSL. ‘n.s.’ represents non-specific band. Arrow indicates CGI-58. (E) Immunoblots of whole cell lysates from 3T3-L1 adipocytes treated with or without 50 ng/ml TNFα or 100 μg/ml poly (I:C) for 24 hr followed by treatment with or without 10 μM ISO for 15 min in the presence or absence of pretreatment with increasing concentrations (0, 10, 50, and 200 μM) of amlexanox for 30 min.
The obesity-dependent increase was modeled in the noncanonical IKKs by overexpressing IKKε in 3T3-L1 adipocytes, followed by assay of glycerol release in response to ISO or CL-316,243. […] Overexpression of TBK1 reduced phosphorylation of HSL in response to isoproterenol or the adenylyl cyclase activator, forskolin (FIG. 1). Identical results were obtained when IKKε was overexpressed in 3T3-L1 adipocytes stimulated with forskolin (FIG. 1D), as detected by western blotting with an anti-phospho-PKA substrate motif antibody. […]

The text below walks through data of patent US20150224089A1, “COMBINATIONS OF IKKi/TBK1 INHIBITORS WITH BETA ADRENERGIC AGONISTS OR SYMPATHETIC NERVOUS SYSTEM ACTIVATORS” (THE REGENTS OF THE UNIVERSITY OF MICHIGAN, priority 2014, published 2015).

As to `CC(C)c1ccc2oc3nc(N)c(C(=O)O)cc3c(=O)c2c1` [amlexanox, 2-amino-7-isopropyl-1-azaxanthone-3-carboxylic acid; 2-amino-7-isopropyl-5-oxo-5H-chromeno[2,3-b]pyridine-3-carboxylic acid], the “cAMP levels in epididymal adipose tissue” value in experiment [1] was “increased”. Moreover, the “phosphorylation of TBK1 at Ser172” value with inguinal WAT (ex vivo amlexanox pretreatment, relief of feedback inhibition) is given as “increased”. The “phosphorylation of HSL, perilipin and PKA substrate motif proteins in response to CL-316,243” value in the experiment with inguinal WAT (inguinal fat depot, amlexanox pretreatment vs vehicle-pretreated, 60 min CL-316,243) is recorded as “increased phosphorylation”.
Regarding TNFα, the “induction of Ucp1 gene expression in response to β-adrenergic stimuli” value in the experiment on 3T3-L1 adipocytes [2] was “repressed”. For the same molecule, in the experiment on 3T3-L1 adipocytes [3], the “glycerol release in response to isoproterenol and forskolin” value is listed as “decreased glycerol release”.
